Broadly, the IC50 is the concentration that gives 50% inhibition. What is called melting point is the temperature of the solid-liquid transition.

Results on 8 compounds are retold here after publication PMC11535068, “Design, in silico studies and biological evaluation of novel chalcones tethered triazolo[3,4-a]isoquinoline as EGFR inhibitors targeting resistance in non-small cell lung cancer” (Scientific Reports, 2024).

Series [1] has as its system MCF-7. Description: MTT antiproliferative assay. The settings on record: Homo sapiens, MCF7, 24 h, read-out: IC50 MCF-7. Background: Formazan colour is commonly taken as a measure of viable cells.
Description: (§4) Cell line cells were purchased from the American Type Culture Collection (ATCC, Manassas, VA) and were cultured according to the supplier’s instructions. […] The media was changed every 48 h, and the cells were split when 80–90% confluence was reached. Cell viability was evaluated by MTT assay.
For series [2], the system named is HT-29. Description: MTT antiproliferative assay. The settings on record: Homo sapiens, HT-29, 24 h, read-out: IC50 HT-29.
Description: as §4
Series [3] relates to WI-38. Nature of the series: MTT assay on normal lung cell line. Conditions: Homo sapiens, WI-38, 24 h, read-out: IC50 WI-38.
Description: as §4
The target of series [4] is T1, total EGFR (Homo sapiens, UniProt P00533).
T1 construct: endogenous in cells; host or cells: A549
Nature of the series: EGFR inhibition assay on A549 cells (cloud clone SEA757Hu kit). It is filed as cell-based. Conditions: for IC50: total EGFR, A549 cells. Here is the method:
(§1) EGFR inhibition assay was performed on A549 cancer cells using cloud clone product SEA757Hu 96 Ki, according to manufacturer’s instructions protocol. The homogeneous time-resolved fluorescence assay method was used to assess the inhibitory activity of 3e and 3f against EGFR^WT, EGFR^T790M and EGFR^L858R. The EGFR proteins (EGFR^WT, EGFR^T790M and EGFR^L858R) were obtained from Signalchem (BC V6V 2J2, Canada). ATP and other chemicals were obtained from Sigma. […] After 30 min, the reaction was stopped by adding detection reagents containing EDTA.

Series [5] has as its system PC3. Description: MTT antiproliferative assay. The settings on record: Homo sapiens, PC-3, 24 h, read-out: IC50 PC3.
Description: as §4
Series [6] relates to A549. Nature of the series: MTT antiproliferative assay. The settings on record: Homo sapiens, A549, 24 h, read-out: IC50 A549.
Description: as §4
The subject of series [7] is HCT-116. Nature of the series: MTT antiproliferative assay. The settings on record: Homo sapiens, HCT-116, 24 h, read-out: IC50 HCT-116.
Description: as §4
Series [8] concerns the target T2, EGFR^L858R (Homo sapiens, UniProt P00533, L858R).
T2 construct: purchased Signalchem
Description: Homogeneous time-resolved fluorescence EGFR-TK assay. In kind it is biochemical. Conditions: selectivity index. Here is the method:
as §1

Series [9] deals with T3, EGFR^T790M (Homo sapiens, UniProt P00533, T790M).
T3 construct: purchased Signalchem
Described as above. It is filed as biochemical. Conditions: selectivity index. Here is the method: as §1

The subject of series [10] is Caspase 8. Description: RT-qPCR gene expression in A549 cells. It is filed as cell-based, human. Conditions: A549, 24 h, vs vehicle cells, beta-actin housekeeping gene. As for the experimental part: (§2) The real-time polymerase chain reaction (RT-qPCR) technique was used to evaluate the gene expression. A panel of eight genes (P53, BAX, Caspase-3, Caspase-8, Caspase-9, MMP1, CDK4, and Bcl2) was chosen to estimate the compounds’ ability to induce apoptosis. A549 cancer cells were treated with 3e and 3f compounds for 24 h before total RNA extraction. While untreated A549 cancer cells were utilized as a negative control. One-step RT-qPCR was performed using the iScript™ One-Step RT-PCR kit with SYBR®. The primer pairs sequences for each gene used are mentioned in Table 7. Control reactions were formed […] or without the reverse transcriptase enzyme.
(In general: Quantitative PCR measures a nucleic acid by following its amplification.)

Series [11] concerns MMP1. Nature of the series: RT-qPCR gene expression in A549 cells. It is filed as cell-based, human. The settings on record: A549, 24 h, vs vehicle cells, beta-actin housekeeping gene. Here is the method:
as §2

In series [12] the test system is Bax. Nature of the series: RT-qPCR gene expression in A549 cells. It is filed as cell-based, human. Conditions: A549, 24 h, vs vehicle cells. As for the experimental part:
as §2

The test system of series [13] is Bcl2. Nature of the series: RT-qPCR gene expression in A549 cells. In kind it is cell-based, human. Conditions: A549, 24 h, vs vehicle cells, beta-actin housekeeping gene. Here is the method:
as §2

Series [14] concerns P53. Description: RT-qPCR gene expression in A549 cells. It is filed as cell-based, human. The settings on record: A549, 24 h, vs vehicle cells. As for the experimental part: as §2
Series [15] concerns Caspase 9. Description: RT-qPCR gene expression in A549 cells. In kind it is cell-based, human. The settings on record: A549, 24 h, vs vehicle cells, beta-actin housekeeping gene. As for the experimental part:
as §2

Series [16] has as its system CDK4. Nature of the series: RT-qPCR gene expression in A549 cells. In kind it is cell-based, human. Conditions: A549, 24 h, vs vehicle cells, beta-actin housekeeping gene. Here is the method: as §2
Series [17] has as its system Caspase 3. Nature of the series: RT-qPCR gene expression in A549 cells. In kind it is cell-based, human. Conditions: A549, 24 h, vs vehicle cells, beta-actin housekeeping gene. As for the experimental part: as §2
In series [18] the test system is A549 lung cancer cells. Description: Annexin V-FITC/PI flow cytometric apoptosis analysis. In kind it is cell-based, human. The settings on record: A549, 24 h, 3e 2.3 µM, 3f 1.15 µM (IC50). As for the experimental part: (§3) Quantitation of DNA content was evaluated using the Annexin V-FITC Apoptosis Detection kit (BioVision, CA, USA). Dual staining for Annexin-V and PI allows the discrimination between live cells, necrotic cells, and cells in different phases of apoptosis. […] Then, cells were collected and washed with 1X phosphate-buffered saline. The cells were stained in the dark with annexin V-FITC and propidium iodide in a binding buffer and analyzed using the flow cytometer. The cell cycle profiles were analysed using MultiCycle software (Phoenix Flow Systems, San Diego, CA)[60].

The test system of series [19] is A549 lung cancer cells. Nature of the series: Cell cycle analysis (DNA content, flow cytometry). In kind it is cell-based, human. Conditions: A549, 24 h, at IC50. As for the experimental part:
as §3
Background: A flow cytometer gives signals particle by particle.

In turn, `COc1cc2c(cc1OC)C1N(CC2)C(C(=O)C=Cc2cn(-c3ccccc3)nc2-c2ccccc2)=NN1c1ccccc1` (centres unmarked) [Compound 3a, 1-(8,9-Dimethoxy-1-phenyl-1,5,6,10b-tetrahydro-[1,2,4]triazolo[3,4-a]isoquinolin-3-yl)-3-(1,3-diphenyl-1H-pyrazol-4-yl)prop-2-en-1-one] displayed a melting point of 180 to 182 °C. In series [1], the IC50 stood at 8.07 ± 0.1 µM. Also, the half-inhibitory concentration (IC50) in series [2] came out at 16.2 ± 0.57 µM. Further, in [3], the IC50 worked out at 890.44 ± 0.13 µM. The compound further showed an IC50 in series [4] of 1.62 ± 0.23 µM. Further, the IC50 in series [5] was found to be 3.14 ± 1.76 µM. For the same compound, the IC50 in series [6] was 1.98 ± 0.5 µM. The IC50 in series [7] was found to be 8.15 ± 0.54 µM.
`COc1cc2c(cc1OC)C1N(CC2)C(C(=O)C=Cc2cn(-c3ccccc3)nc2-c2ccccc2)=NN1c1ccc(C)cc1` (centres unmarked) [Compound 3b, 1-(8,9-Dimethoxy-1-(p-tolyl)-1,5,6,10b-tetrahydro-[1,2,4]triazolo[3,4-a]isoquinolin-3-yl)-3-(1,3-diphenyl-1H-pyrazol-4-yl)prop-2-en-1-one] returned a melting point of 184 to 186 °C. In addition, in series [1], the concentration for half-maximal inhibition (IC50) was found to be 10 ± 0.23 µM. For the same compound, the IC50 in [2] was 5.05 ± 0.42 µM. Moreover, the IC50 in series [3] turned out to be 669.88 ± 0.26 µM. Besides, the IC50 in series [4] is 1.89 ± 0.37 µM. For the same compound, the concentration for half-maximal inhibition (IC50) in series [5] was 6.61 ± 1.63 µM. Further, in [6], the IC50 turned out to be 2.45 ± 0.68 µM. Further, in series [7], the half-maximal inhibitory concentration (IC50) is 9.41 ± 0.47 µM.
`COc1ccc(N2N=C(C(=O)C=Cc3cn(-c4ccccc4)nc3-c3ccccc3)N3CCc4cc(OC)c(OC)cc4C32)cc1` (centres unmarked) [Compound 3c, 1-(8,9-Dimethoxy-1-(4-methoxyphenyl)-1,5,6,10b-tetrahydro-[1,2,4]triazolo[3,4-a]isoquinolin-3-yl)-3-(1,3-diphenyl-1H-pyrazol-4-yl)prop-2-en-1-one] displayed a melting point of 186 to 188 °C. Further, the IC50 in series [1] stood at 4.07 ± 0.38 µM. Further, the IC50 in [2] is 4.69 ± 0.55 µM. In addition, the IC50 in series [3] was determined as 451.08 ± 0.11 µM. Moreover, the IC50 in series [4] came out at 0.059 ± 0.16 µM. In addition, in series [5], the IC50 was determined as 3.22 ± 1.37 µM. Besides, the IC50 in series [6] turned out to be 5.26 ± 0.49 µM. The half-inhibitory concentration (IC50) in [7] turned out to be 5.4 ± 0.73 µM.
Take `COc1cc2c(cc1OC)C1N(CC2)C(C(=O)C=Cc2cn(-c3ccccc3)nc2-c2ccccc2)=NN1c1ccc(Cl)cc1` (centres unmarked) [Compound 3d, 1-(1-(4-Chlorophenyl)-8,9-dimethoxy-1,5,6,10b-tetrahydro-[1,2,4]triazolo[3,4-a]isoquinolin-3-yl)-3-(1,3-diphenyl-1H-pyrazol-4-yl)prop-2-en-1-one]: the melting point lay within 216 to 218 °C. Also, the IC50 in series [1] was 13.5 ± 0.29 µM. For the same compound, the IC50 in series [2] was 15 ± 0.58 µM. Besides, in series [3], the IC50 was determined as 468.92 ± 0.17 µM. The compound also registered an IC50 in [4] of 0.066 µM. Moreover, the half-inhibitory concentration (IC50) in series [5] came out at 5.05 ± 1.43 µM. In addition, in series [6], the IC50 was 4.68 ± 0.41 µM. In addition, the IC50 in series [7] is 14.1 ± 0.66 µM.
As for `COc1cc2c(cc1OC)C1N(CC2)C(C(=O)C=Cc2cn(-c3ccccc3)nc2-c2ccccc2)=NN1c1ccc(Br)cc1` (centres unmarked) [Compound 3e, 1-(1-(4-Bromophenyl)-8,9-dimethoxy-1,5,6,10b-tetrahydro-[1,2,4]triazolo[3,4-a]isoquinolin-3-yl)-3-(1,3-diphenyl-1H-pyrazol-4-yl)prop-2-en-1-one], the melting point lay in the range of 220 to 222 °C. The IC50 in series [1] was 4.21 ± 0.41 µM. Also, the IC50 in series [2] is 4.2 ± 0.38 µM. For the same compound, the IC50 in [3] is 1731.9 ± 0.21 µM. The “Fold more efficient in inhibiting EGFR than lapatinib” value in series [4] (total EGFR IC50 ratio to Lapatinib) is 1.42 fold. For the same compound, the IC50 in [5] worked out at 2.72 ± 1.36 µM. Also, the “SI^a = EGFR^WT IC50/ EGFR^L858R IC50” value in [8] turned out to be 15.56. For the same compound, the “SI^b = EGFR^WT IC50/ EGFR^T790M IC50” value in series [9] is listed as 2.63. The “Caspase 8 gene expression fold change” value in [10] amounted to 4.23 fold. In series [11], the “MMP1 gene expression fold change” value is 0.37 fold. Moreover, the “Bax gene expression (in words)” value in series [12] was “significantly upregulated”. Also, in [13], the “Bcl-2 gene expression fold change” value is reported as 0.18 fold. Moreover, the “p53 gene expression (in words)” value in series [14] is recorded as “significantly upregulated”. Further, in [15], the “Caspase 9 gene expression fold change” value turned out to be 6.55 fold. Further, the “CDK4 gene expression fold change” value in series [16] is reported as 0.44 fold. Moreover, the “Caspase 3 gene expression fold change” value in series [17] was 9.29 fold. The IC50 in series [6] is 2.3 ± 0.11 µM. The “Apoptosis Late (%)” value in series [18] (vehicle 0.21%) is reported as 4.5%. Further, the “Apoptosis Early (%)” value in series [18] (vehicle 0.49%) amounted to 4.26%. For the same compound, the “Apoptosis Total (%)” value in series [18] (vehicle 0.70%) turned out to be 8.76%. For the same compound, the “Necrosis (%)” value in [18] (vehicle 1.58%) turned out to be 7.26%. Moreover, the “DNA content Pre-G1%” value in series [19] (vehicle 2.28%) was determined as 16.02%. Also, the “DNA content G2/M%” value in series [19] (vehicle 8.99%) amounted to 22.74%. Besides, in series [19] (vehicle 44.26%), the “DNA content S%” value was 35.93%. The “DNA content G0–G1%” value in [19] (vehicle 46.75%) is recorded as 41.33%. Also, in series [7], the IC50 came to 14.8 ± 0.31 µM.
As to `O=c1[nH]cc(F)c(=O)[nH]1` [Compound 5-FU, 5-fluorouracil, reference compound], the IC50 in series [1] stood at 160.3 ± 0.47 µM; in series [2] it was 203.6 ± 0.48 µM; in series [3], 210.69 ± 0.19 µM; in series [5], 178.2 ± 0.34 µM; in series [6], 66.24 ± 0.36 µM; in series [7] it was 171.5 ± 0.23 µM.
In the case of `C#Cc1cccc(Nc2ncnc3cc(OCCOC)c(OCCOC)cc23)c1` [Erlotinib, reference compound], the IC50 in series [2] was determined as 9.5 ± 0.46 µM; in series [3], 1431.6 ± 0.22 µM; in [5], 14.4 ± 0.78 µM; in series [6], 7.32 ± 0.52 µM.
Turning to `CS(=O)(=O)CCNCc1ccc(-c2ccc3ncnc(Nc4ccc(OCc5cccc(F)c5)c(Cl)c4)c3c2)o1` [Lapatinib, reference compound], the IC50 in series [1] stood at 5.02 ± 1.1 µM; in series [2] it was 8.23 ± 0.33 µM; in [3], 1239.4 ± 0.18 µM; in series [5], 13.7 ± 0.89 µM; in [6], 9.66 ± 0.44 µM; in series [7] it was 5.92 ± 0.45 µM.
